{
  "source": "ChEMBL document CHEMBL5137065",
  "about": "“Recent Advances with KDM4 Inhibitors and Potential Applications” (J Med Chem, 2022)",
  "key": {"[1]": {"assay": "Permeability of compound in human Caco-2 cells", "format": "ADME, cell-based", "conditions": "read-out: permeability"}, "[2]": {"target": "T1, Lysine-specific demethylase 4A (Homo sapiens, UniProt O75164)", "T1 sequence (O75164 whole entry)": "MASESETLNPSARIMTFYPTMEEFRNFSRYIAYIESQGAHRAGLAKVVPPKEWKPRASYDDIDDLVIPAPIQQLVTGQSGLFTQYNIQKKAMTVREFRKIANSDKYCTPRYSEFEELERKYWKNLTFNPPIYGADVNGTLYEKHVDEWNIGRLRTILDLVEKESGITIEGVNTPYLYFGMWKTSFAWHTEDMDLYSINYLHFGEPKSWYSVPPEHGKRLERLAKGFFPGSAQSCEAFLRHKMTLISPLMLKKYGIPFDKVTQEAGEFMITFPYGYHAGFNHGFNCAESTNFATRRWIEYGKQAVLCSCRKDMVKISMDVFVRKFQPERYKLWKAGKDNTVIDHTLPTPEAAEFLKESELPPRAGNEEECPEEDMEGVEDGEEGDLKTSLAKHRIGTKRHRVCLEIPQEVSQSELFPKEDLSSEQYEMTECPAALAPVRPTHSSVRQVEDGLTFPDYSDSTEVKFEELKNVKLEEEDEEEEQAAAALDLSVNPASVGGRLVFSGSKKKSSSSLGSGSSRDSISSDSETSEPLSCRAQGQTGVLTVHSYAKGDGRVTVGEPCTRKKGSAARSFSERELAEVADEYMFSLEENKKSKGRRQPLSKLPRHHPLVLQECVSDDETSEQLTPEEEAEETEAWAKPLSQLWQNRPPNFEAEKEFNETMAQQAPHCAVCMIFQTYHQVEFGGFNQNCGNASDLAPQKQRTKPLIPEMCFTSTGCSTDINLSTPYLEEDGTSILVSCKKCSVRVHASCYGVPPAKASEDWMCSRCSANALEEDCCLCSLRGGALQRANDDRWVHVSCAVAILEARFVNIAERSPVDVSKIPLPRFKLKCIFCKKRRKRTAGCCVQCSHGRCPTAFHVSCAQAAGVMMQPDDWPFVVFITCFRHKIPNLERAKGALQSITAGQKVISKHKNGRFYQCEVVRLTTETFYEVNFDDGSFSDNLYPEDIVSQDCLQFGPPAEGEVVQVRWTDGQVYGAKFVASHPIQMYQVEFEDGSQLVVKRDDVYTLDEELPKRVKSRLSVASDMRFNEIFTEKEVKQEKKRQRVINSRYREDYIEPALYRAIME"}, "[3]": {"target": "T1, Lysine-specific demethylase 4A", "remark": "listed apart in the source"}, "[4]": {"target": "T2, Lysine-specific demethylase 2A (Homo sapiens, UniProt Q9Y2K7)", "T2 sequence (Q9Y2K7 whole entry)": "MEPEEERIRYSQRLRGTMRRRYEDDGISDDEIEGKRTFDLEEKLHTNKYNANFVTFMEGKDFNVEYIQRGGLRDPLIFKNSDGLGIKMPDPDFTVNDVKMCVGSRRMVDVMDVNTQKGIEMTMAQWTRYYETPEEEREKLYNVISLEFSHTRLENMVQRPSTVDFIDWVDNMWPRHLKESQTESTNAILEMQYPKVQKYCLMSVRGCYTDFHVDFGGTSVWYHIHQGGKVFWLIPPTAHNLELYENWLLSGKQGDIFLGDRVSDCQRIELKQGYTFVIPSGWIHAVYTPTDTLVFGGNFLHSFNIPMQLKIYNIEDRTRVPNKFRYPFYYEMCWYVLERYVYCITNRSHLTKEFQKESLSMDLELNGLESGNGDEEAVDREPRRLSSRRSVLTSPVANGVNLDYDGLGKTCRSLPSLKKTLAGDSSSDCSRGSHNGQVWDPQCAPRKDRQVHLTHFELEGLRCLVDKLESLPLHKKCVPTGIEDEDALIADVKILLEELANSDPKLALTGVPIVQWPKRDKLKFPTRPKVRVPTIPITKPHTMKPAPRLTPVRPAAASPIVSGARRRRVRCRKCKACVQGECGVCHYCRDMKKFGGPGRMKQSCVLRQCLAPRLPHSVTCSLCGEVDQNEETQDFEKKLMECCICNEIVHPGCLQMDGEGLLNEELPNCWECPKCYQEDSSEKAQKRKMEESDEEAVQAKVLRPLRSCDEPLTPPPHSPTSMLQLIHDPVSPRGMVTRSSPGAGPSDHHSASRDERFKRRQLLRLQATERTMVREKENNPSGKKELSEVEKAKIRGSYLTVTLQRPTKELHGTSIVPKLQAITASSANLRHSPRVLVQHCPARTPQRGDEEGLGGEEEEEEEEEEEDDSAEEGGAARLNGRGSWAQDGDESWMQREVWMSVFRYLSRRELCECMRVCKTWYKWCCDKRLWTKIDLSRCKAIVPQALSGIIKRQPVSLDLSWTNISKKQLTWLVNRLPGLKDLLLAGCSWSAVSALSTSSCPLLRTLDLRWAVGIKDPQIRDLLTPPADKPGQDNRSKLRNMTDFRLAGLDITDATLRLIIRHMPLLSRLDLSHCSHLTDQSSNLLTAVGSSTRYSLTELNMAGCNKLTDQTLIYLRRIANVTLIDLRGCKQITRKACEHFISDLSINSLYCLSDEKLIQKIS", "assay": "Inhibition of KDM2A in human MIA PaCa-2 cells assessed as induction of H3K36me2 measured by immunofluorescence assay", "format": "cell-based"}, "[5]": {"target": "T3, Lysine-specific demethylase 4B (Homo sapiens, UniProt O94953)", "T3 sequence (O94953 whole entry)": "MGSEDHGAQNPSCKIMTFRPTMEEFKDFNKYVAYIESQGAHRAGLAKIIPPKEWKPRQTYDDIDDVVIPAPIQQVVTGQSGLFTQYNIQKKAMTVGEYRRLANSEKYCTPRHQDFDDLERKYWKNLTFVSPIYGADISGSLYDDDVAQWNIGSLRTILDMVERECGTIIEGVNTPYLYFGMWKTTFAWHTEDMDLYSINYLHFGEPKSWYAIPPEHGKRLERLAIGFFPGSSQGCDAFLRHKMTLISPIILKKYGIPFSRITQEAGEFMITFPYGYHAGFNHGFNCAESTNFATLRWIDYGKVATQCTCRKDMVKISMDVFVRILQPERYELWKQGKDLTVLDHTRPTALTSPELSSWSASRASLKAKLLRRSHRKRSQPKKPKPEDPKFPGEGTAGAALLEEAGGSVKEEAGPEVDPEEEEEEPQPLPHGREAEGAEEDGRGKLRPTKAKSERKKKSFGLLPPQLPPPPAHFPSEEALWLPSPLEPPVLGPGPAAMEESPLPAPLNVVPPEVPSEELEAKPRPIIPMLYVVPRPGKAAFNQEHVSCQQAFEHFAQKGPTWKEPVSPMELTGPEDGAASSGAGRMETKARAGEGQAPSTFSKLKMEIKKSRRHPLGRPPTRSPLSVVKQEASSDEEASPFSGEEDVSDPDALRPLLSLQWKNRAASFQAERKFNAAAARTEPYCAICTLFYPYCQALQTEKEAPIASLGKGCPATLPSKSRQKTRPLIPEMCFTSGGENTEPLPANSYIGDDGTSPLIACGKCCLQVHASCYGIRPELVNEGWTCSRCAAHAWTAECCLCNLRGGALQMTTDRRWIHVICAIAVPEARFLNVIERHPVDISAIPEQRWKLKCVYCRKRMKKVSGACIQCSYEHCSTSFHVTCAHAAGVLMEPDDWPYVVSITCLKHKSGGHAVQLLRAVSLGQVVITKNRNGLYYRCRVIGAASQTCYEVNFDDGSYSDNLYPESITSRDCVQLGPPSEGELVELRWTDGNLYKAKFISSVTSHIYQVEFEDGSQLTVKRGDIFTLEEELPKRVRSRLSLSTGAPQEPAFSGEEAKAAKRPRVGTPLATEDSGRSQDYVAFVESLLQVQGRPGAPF", "assay": "Inhibition of human KDM4B measured by AlphaLISA assay"}, "[6]": {"target": "T4, Lysine-specific demethylase 4C (Homo sapiens, UniProt Q9H3R0)", "T4 sequence (Q9H3R0 whole entry)": "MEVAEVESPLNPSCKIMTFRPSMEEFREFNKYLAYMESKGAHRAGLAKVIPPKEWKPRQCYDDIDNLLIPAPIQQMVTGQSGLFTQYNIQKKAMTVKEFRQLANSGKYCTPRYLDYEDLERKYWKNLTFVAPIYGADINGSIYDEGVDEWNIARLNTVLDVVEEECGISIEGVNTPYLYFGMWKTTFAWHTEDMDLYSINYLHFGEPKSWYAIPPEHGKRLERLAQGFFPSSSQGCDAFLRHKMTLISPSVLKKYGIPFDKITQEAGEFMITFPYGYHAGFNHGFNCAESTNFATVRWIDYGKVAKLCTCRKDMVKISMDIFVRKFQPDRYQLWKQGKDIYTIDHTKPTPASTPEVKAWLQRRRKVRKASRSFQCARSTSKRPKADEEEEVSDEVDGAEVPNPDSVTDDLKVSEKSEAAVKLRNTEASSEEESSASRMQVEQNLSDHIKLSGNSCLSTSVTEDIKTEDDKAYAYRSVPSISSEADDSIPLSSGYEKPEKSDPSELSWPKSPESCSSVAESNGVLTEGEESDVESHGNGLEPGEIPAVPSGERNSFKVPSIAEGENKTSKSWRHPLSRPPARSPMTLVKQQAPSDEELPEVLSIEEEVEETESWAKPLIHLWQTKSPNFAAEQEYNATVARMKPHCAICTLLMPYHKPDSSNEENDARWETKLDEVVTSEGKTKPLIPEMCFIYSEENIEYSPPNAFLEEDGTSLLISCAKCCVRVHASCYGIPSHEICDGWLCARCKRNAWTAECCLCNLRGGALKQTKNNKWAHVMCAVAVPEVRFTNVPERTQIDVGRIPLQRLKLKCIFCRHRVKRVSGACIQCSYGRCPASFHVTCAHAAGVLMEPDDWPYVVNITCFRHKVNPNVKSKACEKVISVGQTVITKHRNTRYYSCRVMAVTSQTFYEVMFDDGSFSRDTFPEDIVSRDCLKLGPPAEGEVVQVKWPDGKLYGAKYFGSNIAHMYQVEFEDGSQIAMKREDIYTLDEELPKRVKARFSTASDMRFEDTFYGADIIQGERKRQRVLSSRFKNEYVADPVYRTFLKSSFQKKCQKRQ", "assay": "Inhibition of human KDM4C measured by AlphaLISA assay"}, "[7]": {"target": "T5, Lysine-specific demethylase 4D (Homo sapiens, UniProt Q6B0I6)", "T5 sequence (Q6B0I6 whole entry)": "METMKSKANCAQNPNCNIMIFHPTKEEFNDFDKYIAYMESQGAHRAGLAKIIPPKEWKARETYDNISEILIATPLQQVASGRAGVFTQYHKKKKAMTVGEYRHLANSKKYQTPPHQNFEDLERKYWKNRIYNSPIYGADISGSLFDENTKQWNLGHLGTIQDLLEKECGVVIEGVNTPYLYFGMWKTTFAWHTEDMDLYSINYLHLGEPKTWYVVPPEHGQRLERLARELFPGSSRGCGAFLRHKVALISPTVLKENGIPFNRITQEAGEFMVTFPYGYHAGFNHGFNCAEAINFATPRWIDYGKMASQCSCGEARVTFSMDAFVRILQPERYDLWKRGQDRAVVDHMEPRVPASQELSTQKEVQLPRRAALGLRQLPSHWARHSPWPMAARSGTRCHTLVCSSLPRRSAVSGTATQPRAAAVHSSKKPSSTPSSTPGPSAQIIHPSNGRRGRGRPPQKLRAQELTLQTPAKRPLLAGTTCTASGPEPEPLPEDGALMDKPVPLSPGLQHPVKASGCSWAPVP", "assay": "Inhibition of human KDM4D measured by AlphaLISA assay"}, "[8]": {"target": "T1, Lysine-specific demethylase 4A", "assay": "Inhibition of binding of H3K4Me3 to KDM4A tudor domain (unknown origin) measured by NanoBRET-based cellular proximity assay"}},
  "data": [
    {"smiles": "CN(C)CCCNC(=O)c1ccc(-c2cc(O)c3ncccc3c2)cc1", "values": [
      {"measurement": "Papp", "setting": "[1]", "value": 12.5, "unit": "×10⁻⁶ cm/s"}
    ]},
    {"smiles": "CN(C)c1ccc(/C=C/c2cc[n+](Cc3ccc(F)cc3)cc2)cc1", "values": [
      {"measurement": "IC50", "setting": "[2]", "value": 0.28, "unit": "µM"},
      {"measurement": "Ki", "setting": "[3]", "value": 0.42, "unit": "µM"},
      {"measurement": "IC50", "setting": "[4]", "value": 0.28, "unit": "µM"}
    ]},
    {"smiles": "O=C(O)c1cc(O)c(=O)c2c(O)c(O)cc(-c3ccccc3)c2c1", "values": [
      {"measurement": "IC50", "setting": "[5]", "value": 24.4, "unit": "µM"},
      {"measurement": "IC50", "setting": "[6]", "value": 24.4, "unit": "µM"},
      {"measurement": "IC50", "setting": "[7]", "value": 24.4, "unit": "µM"}
    ]},
    {"smiles": "CN(C)C[C@H]1[C@H]2CC[C@](c3ccccc3)(C2)[C@H]1O", "values": [
      {"measurement": "EC50", "setting": "[8]", "value": 105, "unit": "µM"}
    ]}
  ]
}
